Reference: patent US20070078109A1, “Compositions and methods used to treat acne and candida” (priority 2004, published 2007)

Experiments:
[1] = test system: P. acnes and various pathogenic candida; details: including against resistant pathogenic strains
[2] = test system: Staphyloccocus aureus; details: at low concentration
[3] = test system: P. acnes; details: complete inhibition
[4] = test system: acne; details: 4% active AGP formula; in less than 48 hours
[5] = test system: Escherichia coli; details: at low concentration
[6] = test system: C. albicans isolates, including one fluconazole-resistant strain; details: AGP at 0.25% topical, 1-7 days, cyclophosphamide-immunosuppressed animals; compared with 2% miconazole
Description: Pre-clinical studies with three C. albicans isolates, including one fluconazole-resistant strain, were performed using immunosuppressed animals with cyclophosphamide.

## N-acetylglucoseamine (AGA)-glucosamine (GA)-pyrithione (PR) [AGP]
[1]
  bactericidal activity: excellent bactericidal activity
[2]
  activity toward Staphyloccocus aureus: active
[3]
  concentration that completely inhibited P. acnes: less than 0.1 mg/mL
[4]
  results in acne patients: remarkable results
[5]
  activity toward Escherichia coli: active
[6]
  clearing the infection: equivalent in clearing the infection as 2% miconazole
